Laboratory results taken from BindingDB's records for patent US20230365541 (Haisco Pharmaceuticals, 2023).

Target: Histone-lysine N-methyltransferase EZH2 (Homo sapiens, UniProt Q15910)
Assay: EZH2 Enzyme Activity Assay
Protocol: The compounds were dissolved in DMSO, formulated into 10 mM solutions and serially diluted with DMSO to obtain 100-fold the final concentration. 200 nL of the solutions of the compounds was transferred to a 384-well plate (Perkin Elmer, Cat. No. 6007299) by using Echo550. EZH2 (BPS, Cat. No. 51004) was diluted with 1×assay buffer (50 mM Tris-HCl 9.0, 0.01% Tween-20, 1 mM DTT) to 2-fold the final concentration (EZH2: 3 nM). A mixed solution of H3K27(21-44) and [3H]-SAM (PerkinElmer, Lot. No. 2146246) (H3K27(21-44): 200 nM, [3H]-SAM: 100 nM) was formulated. The EZH2 diluted solution was taken and added to the 384-well plate at 10 μL/well (10 μL of 1×assay buffer was added in the control group). The plate was sealed and then incubated at room temperature for 15 minutes. 10 μL of the mixed solution of H3K27 (21-44) and [3H]-SAM was added to each well. The plate was sealed and then incubated at room temperature for 60 minutes. 50 μM of SAM (Sigma, Cat. No. A7007) was formulated at low temperature and added to the 384-well plate at 10 μL/well. The sample was taken at 25 μL/well, transferred to a flashplate and incubated at room temperature for at least 1 hour. The flashplate was washed 3 times with a plate washing liquid (dH2O+0.1% Tween-20) and read by using Microbeta.

Sequence of Histone-lysine N-methyltransferase EZH2 (Q15910 whole entry): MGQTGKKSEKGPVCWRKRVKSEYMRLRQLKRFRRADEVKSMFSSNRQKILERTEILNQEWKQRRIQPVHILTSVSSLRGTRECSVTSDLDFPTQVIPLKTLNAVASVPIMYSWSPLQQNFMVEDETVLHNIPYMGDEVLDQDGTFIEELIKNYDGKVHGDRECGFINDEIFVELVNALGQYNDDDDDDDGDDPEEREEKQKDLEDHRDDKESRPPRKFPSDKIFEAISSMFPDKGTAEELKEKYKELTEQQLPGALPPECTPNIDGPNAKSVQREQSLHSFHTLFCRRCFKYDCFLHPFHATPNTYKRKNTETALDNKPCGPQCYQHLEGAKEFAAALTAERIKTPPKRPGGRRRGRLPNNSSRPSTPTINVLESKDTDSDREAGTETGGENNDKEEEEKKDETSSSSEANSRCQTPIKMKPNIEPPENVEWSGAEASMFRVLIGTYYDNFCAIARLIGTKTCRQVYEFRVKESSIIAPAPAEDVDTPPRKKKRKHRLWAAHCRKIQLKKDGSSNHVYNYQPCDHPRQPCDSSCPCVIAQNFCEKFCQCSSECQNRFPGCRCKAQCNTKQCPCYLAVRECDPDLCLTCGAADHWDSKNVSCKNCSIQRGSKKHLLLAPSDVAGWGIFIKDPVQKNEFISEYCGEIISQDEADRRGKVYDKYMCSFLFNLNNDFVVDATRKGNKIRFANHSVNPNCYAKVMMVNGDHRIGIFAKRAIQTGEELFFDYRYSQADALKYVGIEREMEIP

IC50 | Structure (SMILES)
0.43 nM | CNC(=O)N1CCC(C2(C)Oc3c(Cl)cc(C(=O)NCc4c(SC)cc(C)[nH]c4=O)c(C)c3O2)CC1 (configuration not stated) [US20230365541, Compound 13]
0.48 nM | CSc1cc(C)[nH]c(=O)c1CNC(=O)c1cc(Cl)c2c(c1C)OC(C)(C1CCN(S(C)(=O)=O)CC1)O2 (configuration not stated) [US20230365541, Compound 14]
